Paper PMC11124525, “Pharmacokinetic–Pharmacodynamic Correlation Analysis of Rhodiola crenulata in Rats with Myocardial Ischemia” (Pharmaceuticals, 2024)
“Also recorded” adds a separate entry of the source. Where two headings read alike, the source gives them in different places.

Key:
[1] = rat
Experimental: A series concentration mixed reference solution with different concentrations was added to 100 μL plasma, and was treated according to the method under Section 4.6 to obtain the matrix standard curve sample. Samples with concentrations of 400, 100, and 10 ng/mL, respectively, were taken as quality control (QC) samples of high, medium, and low concentrations (HQC, MQC, LQC). The method was validated, including linearity, inter-day/intra-day precision, repeatability, stability, extraction recovery, and matrix effect, according to FDA bioanalytical method validation guidelines.

AST = assay: PK-PD sigmoid-Emax model, PD index AST in MDG rats; assay type: in vivo, SD rats; set-up: unit not given beside the values
[2] = PK of five RC components in pituitrin-induced myocardial ischemia (MDG) rats after oral RC extract, HPLC-QQQ-MS/MS, DAS; assay type: in vivo, SD rats; details: for Tmax / AUC(0-t) / AUC(0-inf) / CL/F / Cmax / MRT / MRT inf / Vd/F / half-life: rat, plasma; for AUC(0-t): read-out: AUC(0−t); for AUC(0-inf): read-out: AUC(0−∞); for CL/F: read-out: CLz/F (converted); for Cmax: read-out: Cmax; for MRT: read-out: MRT(0−); for MRT inf: read-out: MRT(0−∞); for Vd/F: read-out: Vz/F; for half-life: read-out: t1/2z (converted)
Experimental: (§1) The drug concentration in plasma was calculated using the standard curve, and the mean blood concentration was plotted against the time to obtain the mean blood concentration–time curve (Figure 4).
(§2) The rat model of MI was made with Pit. The rats were divided into a sham operation group (SG), sham operation administration group (SDG), model group (MG), and model administration group (MDG) (n = 6 for each group). The MI model was prepared via an intraperitoneal injection (a single time) of Pit in the MG and MDG, with a dosage of 20 U/kg and a volume of 10 mL/kg. At the same time, the rats in the SG and SDG groups were given the same volume of saline in the same way.
(§3) RC extract (2 g/kg, equivalent to human clinical equivalent dose) was given to rats via oral administration in SDG and MDG, and the same volume of normal saline was orally administered to the SG and MG. Rats were fasted for 12 h before the experiment. Blood was collected from the fundus venous plexus at 0, 5, 10, 15, 30, 45 min, 1, 2, 4, 6, 8, 12, and 24 h after in gavage, placed in a centrifuge tube impregnated with heparin sodium, centrifuged at 3500 rpm for 15 min, and then the plasma was collected and divided into two parts. One part was used for biochemical index determination and the other part was used to determine the content of pharmaceutical ingredients in vivo. After the experiment, the rats were sacrificed, and the hearts were placed in paraformaldehyde for histopathological analysis.
(§4) The plasma sample of 100 μL was accurately absorbed, 50 μL internal standard solution (Nimodipine, 500 ng/mL) was added, then 300 μL acetonitrile precipitated protein was added, vortex for 10 min, placed under ultrasound for 3 min, centrifuged at 13,000 rpm for 10 min, and then the supernatant was transferred to another centrifuge tube. It was then concentrated until dry with a rotary evaporator. The residue was redissolved with 100 μL 50% acetonitrile, swirled for 1 min, placed under ultrasonic for 3 min, centrifuged at 13,000 rpm for 10 min, and the supernatant was taken for analysis.
(§5) A validated HPLC-QQQ-MS/MS method was used for the determination of drug-derived components in plasma samples at different time points. The accompanying standard curve was substituted to calculate the content of the compounds to be measured, and then the PK parameters were calculated using DAS software (version 3.2.8), and the blood concentration–time curve was plotted using GraphPad Prism (version 8.0.2). PK behavior was compared between the sham operation and model group, and PK models were established, respectively.

[3] = PK of five RC components in sham operation administration (SDG, normal) rats after oral RC extract, HPLC-QQQ-MS/MS, DAS; assay type: in vivo, SD rats; details: rat, SDG rats, oral RC extract 2 g/kg, plasma, mean ± SD, n = 6; for AUC(0-t): read-out: AUC(0−t); for AUC(0-inf): read-out: AUC(0−∞); for CL/F: read-out: CLz/F (converted); for Cmax: read-out: Cmax; for MRT: read-out: MRT(0−); for MRT inf: read-out: MRT(0−∞); for Tmax: read-out: Tmax; for Vd/F: read-out: Vz/F; for half-life: read-out: t1/2z (converted)
Experimental: as §1, §2, §3, §4, §5

HBDH = assay: PK-PD sigmoid-Emax model, PD index HBDH in MDG rats; assay type: in vivo, SD rats; set-up: unit not given beside the values
[4] = cited from earlier work
SOD = assay: PK-PD sigmoid-Emax model, PD index SOD in MDG rats; assay type: in vivo, SD rats; set-up: Ke0: unit not given beside the values
LDH = assay: PK-PD sigmoid-Emax model, PD index LDH in MDG rats
Description: Subsequently, we incorporated the PK and PD data to conduct PK-PD modeling through DAS.
Therefore, PK-PD correlation analysis was used in this study, linking dynamic concentration–time processes and effect–time profile relationships [20, 21, 22]. […] The model adopted in this study is the S-Emax model. In the equation, γ means the shape factor in the formula, affecting the slope and determining the steepness of the curve. Emax can provide the maximum response intensity, and ED50 is for evaluating the safety of the drug, which is understood as the amount of the drug that causes 50% of the maximum response intensity.
Plasma creatine kinase (CK), hydroxybutyrate dehydrogenase (HBDH), lactate dehydrogenase (LDH), and superoxide dismutase (SOD) activity was determined using an automatic biochemical analyzer.
The activity of the CK, HBDH, LDH, and SOD of plasma samples collected at different time points was determined using an automatic biochemical analyzer for PD index evaluation. […] Two compartmental methods were used, employing the drug and statistics, which was supplied by the Chinese Pharmacological Society. Then, the efficacy indicators were fitted in the PK-PD model.

CK = assay: PK-PD sigmoid-Emax model, PD index CK in MDG rats; assay type: in vivo, SD rats; set-up: Emax: unit not given beside the values
[5] = MDG vs SDG rats, oral RC extract 2 g/kg
[6] = MDG (myocardial ischemia) rats, oral RC extract 2 g/kg, mean ± SD, n = 6
[7] = in vivo, MDG (myocardial ischemia) rats, oral RC extract 2 g/kg, mean ± SD, n = 6

OCCc1ccc(O)cc1 [Tyrosol, tyrosol]
Stability RE (%) ([1]; 10 ng/mL): 94.31%
Stability RE (%) ([1]; 50 ng/mL): 96.93%
Stability RE (%) ([1]; 400 ng/mL): 97.75%
Stability RE (%) ([1]; 48 h, 10 ng/mL): 85.44%
Stability RE (%) ([1]; 48 h, 50 ng/mL): 90.28%
Stability RE (%) ([1]; 10 days, 10 ng/mL): 99.52%
Stability RE (%) ([1]; 10 days, 400 ng/mL): 89.70%
Emax (AST): 1213.835
Ke0 (AST): 2.998
Change of CLZ/F in MDG compared with SDG [2, 5]: marked decreasing tendency; also recorded: decreased significantly
Tmax ([2]; SD, po, 2 g/kg, MDG (myocardial ischemia) rats, oral RC extract 2 g/kg, mean ± SD, n = 6, read-out: Tmax): 0.96 ± 0.1 h
Tmax ([2]; SD, po, 2 g/kg, according to the PK results, group not given, oral RC extract, read-out: Tmax (approximate)): ~1 h
AUC(0-t) [2, 6]: 837 ± 66.8 ng·h/mL
AUC(0-inf) [2, 6]: 1100 ± 258 ng·h/mL
CL/F [2, 6]: 79.2 mL/min/kg
Cmax [2, 6]: 143.4 ± 1.41 ng/mL
MRT [2, 6]: 6.54 ± 0.91 h
MRT inf [2, 6]: 16.8 ± 9.96 h
Vd/F [2, 6]: 94.4 ± 44.4 L/kg
half-life [2, 6]: 15.6 ± 0.79 h
AUC(0-t) [3]: 653 ± 63.2 ng·h/mL
AUC(0-inf) [3]: 729 ± 49.2 ng·h/mL
CL/F [3]: 115 mL/min/kg
Cmax [3]: 132 ± 12.6 ng/mL
MRT [3]: 5.59 ± 0.5 h
MRT inf [3]: 9.86 ± 5.68 h
Tmax [3]: 1.17 ± 0.41 h
Vd/F [3]: 97 ± 70.2 L/kg
half-life [3]: 10 ± 7.64 h
Emax (HBDH): 7149.416
Ke0 (HBDH): 0.724
Bioavailability under pathological conditions ([4]; pathological conditions): increased significantly
Emax (SOD): 68.804
Ke0 (SOD): 0.043
Emax (LDH): 483.057
Ke0 (LDH): 2.848
Emax (CK): 2289.882
Ke0 (CK): 2.998

O=c1c(O)c(-c2ccc(O)cc2)oc2cc(O)cc(O)c12 [Kaempferol, kaempferol]
Stability RE (%) ([1]; 10 ng/mL): 102.9%
Stability RE (%) ([1]; 400 ng/mL): 94.57%
Stability RE (%) ([1]; 48 h, 10 ng/mL): 101.5%
Stability RE (%) ([1]; 48 h, 50 ng/mL): 90.22%
Stability RE (%) ([1]; 48 h, 400 ng/mL): 92.55%
Stability RE (%) ([1]; 10 days, 50 ng/mL): 99.12%
Stability RE (%) ([1]; 10 days, 400 ng/mL): 100.4%
Emax (AST): 1422.742
Ke0 (AST): 2.998
Change of CLZ/F in MDG compared with SDG [2, 5]: marked decreasing tendency; also recorded: decreased significantly
Change of Cmax in MDG compared with SDG [2, 5]: increased significantly; also recorded: significantly increased
AUC(0-t) [2, 7]: 354 ± 50.4 ng·h/mL
AUC(0-inf) [2, 7]: 645 ± 179 ng·h/mL
CL/F [2, 7]: 140 mL/min/kg
Cmax [2, 7]: 38.4 ± 4.92 ng/mL
MRT [2, 7]: 9.05 ± 0.7 h
MRT inf [2, 7]: 30.9 ± 14.1 h
Tmax ([2]; in vivo, MDG (myocardial ischemia) rats, oral RC extract 2 g/kg, mean ± SD, n = 6, read-out: Tmax): 0.75 h
Vd/F [2, 7]: 245 ± 67 L/kg
half-life [2, 7]: 22.7 ± 10.7 h
AUC(0-t) ([3]; in vivo): 306 ± 30.5 ng·h/mL
AUC(0-inf) ([3]; in vivo): 427 ± 95.4 ng·h/mL
CL/F ([3]; in vivo): 203 mL/min/kg
Cmax ([3]; in vivo): 31.2 ± 1.53 ng/mL
MRT ([3]; in vivo): 8.54 ± 0.55 h
MRT inf ([3]; in vivo): 19.4 ± 9.37 h
Tmax ([3]; in vivo): 1.67 ± 1.21 h
Vd/F ([3]; in vivo): 224 ± 107 L/kg
half-life ([3]; in vivo): 14.1 ± 8.42 h
Emax (HBDH): 6565.084
Ke0 (HBDH): 0.928
AUC, MRT, t1/2, and Cmax in modeled rats ([4]; modeled rats (disease state)): increased
Clearance in modeled rats ([4]; modeled rats (disease state)): decreased
Emax (SOD): 68.398
Ke0 (SOD): 0.115
Emax (LDH): 599.812
Emax (CK): 2736.472
Ke0 (CK): 2.998

rhodiosin
Emax (AST): 1084.02
Ke0 (AST): 2.998
Emax (HBDH): 4335.008
Ke0 (HBDH): 0.469
Emax (SOD): 72.933
Ke0 (SOD): 0.055
Emax (LDH): 484.31
Ke0 (LDH): 2.998
Emax (CK): 2289.293
Ke0 (CK): 2.998
